In brackets after ≈: the same amount, converted by molar mass. Peptide text beside a SMILES is read from it.
What was measured:
S. aureus ATCC 33591 = assay: microbe, parasite or virus in culture; format: cell-based, Staphylococcus aureus; conditions: Staphylococcus aureus; S. aureus ATCC 33591; MRSA; read-out: MIC
Method: (§1) To determine the antimicrobial activity of the new antimicrobial peptides, HG2 and HG4, their minimum inhibitory concentrations (MICs) were determined by broth microdilution method[51] in cation adjusted Mueller Hinton broth (MHB) following the International Organisation for Standardisation (ISO) 20776-1 standard for MIC testing using a final bacterial inoculum of 5 × 10^5 CFU/ml[52]. […] The peptides dissolved in sterile distilled water were added to bacteria culture and incubated overnight at appropriate conditions. The MICs of the peptides and comparator antibiotics were recorded after 18–24 h. The minimum bactericidal concentrations (MBCs) were also determined and were taken as the lowest concentration of the antimicrobial that prevented the growth of bacterial cells after the subculture of cells (from MIC treatment) onto antibiotic-free media.

S. aureus EMRSA-15 = assay: microbe, parasite or virus in culture; format: cell-based, Staphylococcus aureus; conditions: Staphylococcus aureus; S. aureus EMRSA-15; resistances MRSA, Cip; read-out: MIC
Method: as §1

[1] = tested on: S. aureus USA300 BAA-1717; assay: microbe, parasite or virus in culture; format: cell-based, Staphylococcus aureus; conditions: Staphylococcus aureus, BAA-1717 / MRSA / USA300; S. aureus USA300 BAA-1717; MRSA; read-out: MIC
Method: as §1

P. aeruginosa = assay: microbe, parasite or virus in culture; format: cell-based, Pseudomonas aeruginosa
Method: as §1

Sal. typhimurium = assay: microbe, parasite or virus in culture; format: cell-based, Salmonella enterica serovar Typhimurium
Method: as §1

E. coli = assay: microbe, parasite or virus in culture; format: cell-based, Escherichia coli
Method: as §1

EMRA-15 = assay: microbe, parasite or virus in culture; format: cell-based, Staphylococcus aureus
Method: as §1

S. aureus = assay: microbe, parasite or virus in culture; format: cell-based, Staphylococcus aureus
Method: as §1

Ent. faecalis = assay: microbe, parasite or virus in culture; format: cell-based, Enterococcus faecalis
Method: as §1

List. monocytogenes = assay: microbe, parasite or virus in culture; format: cell-based, Listeria monocytogenes
Method: as §1

MRSA USA300 cells [2] = assay: Time-kill kinetics; format: cell-based, Staphylococcus aureus; conditions: 3x MIC, comparator antibiotics, time not stated
Method: The bactericidal activity of HG2, HG4 and comparator antimicrobial compounds was assessed using exponential-phase cultures[14] of MRSA USA300 grown in MHB (1 × 10^6-8 CFU/ml). […] Samples were taken at different time points, serially diluted and inoculated onto MH agar plates using the spread plate technique. After overnight incubation, the colony-forming units per millilitre of cell culture (CFU/ml) was calculated. Experiments were performed in quadruplicates.

MRSA USA300 cells [3] = assay: Serial passage / resistance assay; format: cell-based, Staphylococcus aureus; conditions: sub-MIC exposure over 20 days, MRSA USA300
Method: In vitro evaluation of the potential for MRSA USA3000 cells to develop resistance to HG2 and HG4 was performed as follows. […] Cultures from the highest concentration that supported growth were diluted 1: 1000 in MHB and used to provide the inoculum for the next passage day. This process was performed for a total duration of 20 days. Any putative mutants recovered were isolated via streak dilution for three generations on MHA, prior to further characterisation.

MIC (S. aureus ATCC 33591) [µg/mL]	MIC (S. aureus EMRSA-15) [µg/mL]	Minimum inhibitory Concentrations MICs (P. aeruginosa) [µg/mL]	Minimum inhibitory Concentrations MICs (Sal. typhimurium) [µg/mL]	Minimum inhibitory Concentrations MICs (E. coli) [µg/mL]	Minimum inhibitory Concentrations MICs (EMRA-15) [µg/mL]	Minimum inhibitory Concentrations MICs (S. aureus) [µg/mL]	Minimum inhibitory Concentrations MICs (Ent. faecalis) [µg/mL]	Minimum inhibitory Concentrations MICs (List. monocytogenes) [µg/mL]	SMILES	MIC [1] [µg/mL]	reduction in viable cells (time-kill) (MRSA USA300 cells [2]) [log10 CFU/ml]	fold increase in MIC during serial passage (MRSA USA300 cells [3]) [fold]
0.015 (≈ 0.0415 µM)	1 (≈ 2.77 µM)								C[C@H]1COc2c(N3CCN(C)CC3)c(F)cc3c(=O)c(C(=O)O)cn1c23 [Levof, levofloxacin]	0.0075 (≈ 0.0208 µM)		
		> 1024	> 1024	> 1024	> 1024	> 1024	> 1024	> 1024	CC[C@H](C)[C@H](NC(=O)[C@H](CC(C)C)NC(=O)[C@H](CC(C)C)NC(=O)[C@H](CC(C)C)NC(=O)[C@H](CCCCN)NC(=O)[C@H](CCCCN)NC(=O)[C@@H](N)CCSC)C(=O)N[C@@H](CC(C)C)C(=O)N[C@@H](Cc1ccccc1)C(=O)N[C@@H](CS)C(=O)N[C@@H](CC(C)C)C(=O)N[C@@H](C)C(=O)N[C@@H](CC(C)C)C(=O)N[C@@H](C)C(=O)N[C@@H](CC(C)C)C(=O)N[C@@H](C)C(=O)NCC(=O)N[C@@H](CS)C(=O)N[C@@H](CCCCN)C(=O)N[C@@H](CCCCN)C(=O)N[C@@H](C)C(=O)N1CCC[C@H]1C(N)=O [Linear HG2] (H-MKKLLLILFCLALALAGCKKAP-NH2; N-terminus and C-terminus assumed)			
									C/C(=C\C(=O)OCCCCCCCCC(=O)O)C[C@@H]1OC[C@H](C[C@@H]2O[C@H]2[C@@H](C)[C@H](C)O)[C@@H](O)[C@H]1O [Mupirocin, reference compound]	0.12 (≈ 0.24 µM)	≥ 2	32
